Measured values published in ChEMBL document CHEMBL1136864, “A one step/one pot synthesis of N,N-bis(phosphonomethyl)amino acids and their effects on adipogenic and osteogenic differentiation of human mesenchymal stem cells” (Bioorg Med Chem, 2009).
Calls of active or inactive are those of the source. The calls are words filed in the database; no cut-off is given here.

Experiments:
MADS [1] = test: Induction of osteogenesis in human MADS cells assessed as ALP activity at 0.1 to 100 nM; format: functional, cell-based
[2] = Inhibition of osteogenesis in human MADS cells assessed as ALP activity at 100 nM; format: cell-based; conditions: 0.1 µM
MADS [3] = test: Effect on adipogenesis in human MADS cells assessed as GPDH activity at 100 nM; format: functional, cell-based
MADS [4] = test: Effect on adipogenesis in human MADS cells assessed as GPDH activity at 300 nM; format: functional, cell-based
[5] = Toxicity in human MADS cells assessed as inhibition of osteoblast formation at 300 nM after 14 days by Von Kossa staining; format: cell-based; conditions: 336 h, 0.3 µM
[6] = Toxicity in human MADS cells assessed as inhibition of osteoblast formation at 100 nM after 14 days by Von Kossa staining; format: cell-based; conditions: 336 h, 0.1 µM
MADS [7] = test: Effect on adipogenic differentiation of human MADS cells into adipocytes at 300 nM after 14 days by Oil red O staining; format: functional, cell-based
[8] = Cytotoxicity against human MADS cells at 100 nM; format: cell-based; conditions: 0.1 µM
[9] = Inhibition of osteogenesis in human MADS cells assessed as ALP activity at 300 nM; format: cell-based; conditions: 0.3 µM
[10] = Cytotoxicity against human MADS cells at 0.1 to 100 nM; format: cell-based; conditions: 0.1 µM
MADS [11] = test: Effect on adipogenic differentiation of human MADS cells into adipocytes at 100 nM after 14 days by Oil red O staining; format: functional, cell-based
[12] = Cytotoxicity against human MADS cells at 300 nM; format: cell-based; conditions: 0.3 µM

Row | Compound | Activity (MADS [1]) | Activity [2] | Activity (MADS [3]) | Activity (MADS [4]) | Activity [5] | Activity [6] | Activity (MADS [7]) | Activity [8] | Activity [9] | Activity [10] | Activity (MADS [11]) | Activity [12]
1 | O=C(O)C1(N(CP(=O)(O)O)CP(=O)(O)O)CCCCC1 | Active | Active | inactive | inactive | Toxic | Toxic | inactive | Non-toxic | Active | Non-toxic | inactive | Non-toxic
2 | NCCCC(O)(P(=O)(O)O)P(=O)(O)O | Active |  |  | inactive |  |  |  |  |  |  |  | 
3 | CC(C)(C(=O)O)N(CP(=O)(O)O)CP(=O)(O)O | Active | Active | inactive | inactive | Toxic | Toxic | inactive | Non-toxic | Active | Non-toxic | inactive | Non-toxic
4 | O=C(O)C1(N(CP(=O)(O)O)CP(=O)(O)O)CCCC1 | Active | Active | inactive | inactive | Toxic | Toxic | inactive | Non-toxic | Active | Non-toxic | inactive | Non-toxic
